From ChEMBL document CHEMBL5154660, “Straightforward access to novel mitochondriotropics derived from 2-arylethanol as potent and selective antiproliferative agents” (Eur J Med Chem, 2022)
Activity calls are given as the source filed them. The rule behind the calls is not given here.

Tests used:
A549 = assay: Antiproliferative activity against human A549 cells assessed as reduction in cell growth; type: functional
HBL-100 = assay: Antiproliferative activity against human HBL-100 cells assessed as reduction in cell growth; type: functional
HeLa = assay: Antiproliferative activity against human HeLa cells assessed as reduction in cell growth; type: functional
SW1573 = assay: Antiproliferative activity against human SW1573 cells assessed as reduction in cell growth; type: functional
T47D = assay: Antiproliferative activity against human T47D cells assessed as reduction in cell growth; type: functional
WiDr = assay: Antiproliferative activity against human WiDr cells assessed as reduction in cell growth; type: functional
[1] = Antiproliferative activity against human hTERT-BJ cells assessed as reduction in cell growth; type: toxicity, cell-based
NCI-H460 [2] = assay: Antiproliferative activity against human NCI-H460 cells assessed as reduction in cell growth measured after 48 hrs by sulforhodamine B assay; type: functional
NCI-H460 [3] = assay: Antiproliferative activity against human multi-drug resistant NCI-H460/R cells overexpressing P-glycoprotein assessed as reduction in cell growth measured after 48 hrs by sulforhodamine B assay; type: functional
[4] = Antiproliferative activity against human MRC5 cells assessed as reduction in cell growth measured after 48 hrs by sulforhodamine B assay; type: toxicity, cell-based
[5] = Resistant index, ratio of GI50 for human multi-drug resistant NCI-H460/R cells to GI50 for human NCI-H460 cells; type: functional
NCI-H460 [6] = assay: Induction of apoptosis in human NCI-H460 cells assessed as increase in necrotic cells at 600 nM incubated for 48 hrs by annexin-V-FITC and PI staining based flow cytometry analysis (reference value: 2 %); type: functional
NCI-H460 [7] = assay: Antiproliferative activity against human multi-drug resistant NCI-H460/R cells overexpressing P-glycoprotein assessed as cell growth inhibition in presence of tariquidar measured after 48 hrs by sulforhodamine B assay; type: functional; details: dose 0.01-100 µM
NCI-H460 [8] = assay: Cell cycle arrest in human NCI-H460 cells assessed as decrease in accumulation at G1 phase at 600 nM measured after 48 hrs by propidium iodide staining based flow cytometry analysis; type: functional
NCI-H460 [9] = assay: Cell cycle arrest in human NCI-H460 cells assessed as increase in accumulation at S phase at 600 nM measured after 48 hrs by propidium iodide staining based flow cytometry analysis; type: functional
NCI-H460 [10] = assay: Cell cycle arrest in human NCI-H460 cells assessed as increase in accumulation at G2/M phase at 600 nM measured after 48 hrs by propidium iodide staining based flow cytometry analysis; type: functional
NCI-H460 [11] = assay: Cell cycle arrest in human NCI-H460 cells assessed as increase in accumulation at subG1 phase at 600 nM measured after 48 hrs by propidium iodide staining based flow cytometry analysis; type: functional
NCI-H460 [12] = assay: Induction of mitochondrial membrane potential loss in human NCI-H460 cells assessed as depolarization of mitochondrial membrane at 600 nM incubated for 24 hrs by JC-1 staining based flow cytometry assay; type: functional, cell-based
NCI-H460 [13] = assay: Induction of mitochondrial membrane potential loss in human NCI-H460 cells assessed as depolarization of mitochondrial membrane at 600 nM incubated for 48 hrs by JC-1 staining based flow cytometry assay; type: functional, cell-based

Compound | GI50 (A549) | GI50 (HBL-100) | GI50 (HeLa) | GI50 (SW1573) | GI50 (T47D) | GI50 (WiDr) | GI50 [1] | GI50 (NCI-H460 [2]) | GI50 (NCI-H460 [3]) | GI50 at 48 h [4] | RatioGI50 [5] | Activity (NCI-H460 [6]) | GI50 (NCI-H460 [7]) | Activity (NCI-H460 [8]) | Activity (NCI-H460 [9]) | Activity (NCI-H460 [10]) | Activity (NCI-H460 [11]) | Activity (NCI-H460 [12]) | Activity (NCI-H460 [13])
COc1ccc(CCOCCCCCCCCCCCC[P+](c2ccccc2)(c2ccccc2)c2ccccc2)cc1OC | 26 nM | 260 nM | 210 nM | 170 nM | 210 nM | 220 nM | 4300 nM |  |  |  |  |  |  |  |  |  |  |  | 
c1ccc(CCOCCCCC[P+](c2ccccc2)(c2ccccc2)c2ccccc2)cc1 | 370 nM | 440 nM | 310 nM | 330 nM | 220 nM | 220 nM | 32000 nM |  |  |  |  |  |  |  |  |  |  |  | 
COc1ccc(CCOCCCCC[P+](c2ccccc2)(c2ccccc2)c2ccccc2)cc1 | 400 nM | 520 nM | 390 nM | 370 nM | 310 nM | 330 nM | 28000 nM |  |  |  |  |  |  |  |  |  |  |  | 
COc1ccc(CCOCCCCCC[P+](c2ccccc2)(c2ccccc2)c2ccccc2)cc1 | 260 nM | 370 nM | 270 nM | 220 nM | 200 nM | 230 nM | 30000 nM |  |  |  |  |  |  |  |  |  |  |  | 
c1ccc(COc2ccc(CCOCCCCCC[P+](c3ccccc3)(c3ccccc3)c3ccccc3)cc2OCc2ccccc2)cc1 | 250 nM | 470 nM | 320 nM | 350 nM | 810 nM | 1000 nM | 3300 nM |  |  |  |  |  |  |  |  |  |  |  | 
COc1ccc(CCOCCCCC[P+](c2ccccc2)(c2ccccc2)c2ccccc2)cc1OC | 3400 nM | 4200 nM | 2300 nM | 2100 nM | 2000 nM | 1500 nM | 57000 nM |  |  |  |  |  |  |  |  |  |  |  | 
COc1ccc(CCOCCCCCC[P+](c2ccccc2)(c2ccccc2)c2ccccc2)cc1OC | 740 nM | 550 nM | 420 nM | 490 nM | 460 nM | 380 nM | 34000 nM |  |  |  |  |  |  |  |  |  |  |  | 
c1ccc(COc2ccc(CCOCCCCC[P+](c3ccccc3)(c3ccccc3)c3ccccc3)cc2OCc2ccccc2)cc1 | 130 nM | 200 nM | 270 nM | 230 nM | 310 nM | 310 nM | 3500 nM |  |  |  |  |  |  |  |  |  |  |  | 
[Br-].c1ccc(CCOCCCCCC[P+](c2ccccc2)(c2ccccc2)c2ccccc2)cc1 | 130 nM | 260 nM | 170 nM | 160 nM | 140 nM | 140 nM | 35000 nM | 570 nM | 4600 nM | 15300 nM | 8.1 | 37% | 610 nM | Active | Active | Active | Active | Active | Active
COc1ccc(CCOCCCCCCCCCCCC[P+](c2ccccc2)(c2ccccc2)c2ccccc2)cc1 | 180 nM | 340 nM | 320 nM | 250 nM | 290 nM | 320 nM | 3600 nM |  |  |  |  |  |  |  |  |  |  |  | 
c1ccc(COc2ccc(CCOCCCCCCCCCCCC[P+](c3ccccc3)(c3ccccc3)c3ccccc3)cc2)cc1 | 450 nM | 370 nM | 600 nM | 420 nM | 570 nM | 770 nM | 3300 nM |  |  |  |  |  |  |  |  |  |  |  | 
c1ccc(COc2ccc(CCOCCCCCCCCCCCC[P+](c3ccccc3)(c3ccccc3)c3ccccc3)cc2OCc2ccccc2)cc1 | 170 nM | 240 nM | 330 nM | 320 nM | 500 nM | 450 nM | 3500 nM |  |  |  |  |  |  |  |  |  |  |  | 
c1ccc([P+](CCCCCOCCc2ccc3c(c2)OCO3)(c2ccccc2)c2ccccc2)cc1 | 1400 nM | 680 nM | 540 nM | 640 nM | 360 nM | 330 nM | 37000 nM |  |  |  |  |  |  |  |  |  |  |  | 
c1ccc(COc2ccc(CCOCCCCCC[P+](c3ccccc3)(c3ccccc3)c3ccccc3)cc2)cc1 | 120 nM | 250 nM | 180 nM | 120 nM | 200 nM | 240 nM | 3100 nM |  |  |  |  |  |  |  |  |  |  |  | 
c1ccc(COc2ccc(CCOCCCCC[P+](c3ccccc3)(c3ccccc3)c3ccccc3)cc2)cc1 | 88 nM | 84 nM | 77 nM | 89 nM | 190 nM | 180 nM | 2900 nM |  |  |  |  |  |  |  |  |  |  |  | 
c1ccc(CCOCCCCCCCCCCCC[P+](c2ccccc2)(c2ccccc2)c2ccccc2)cc1 | 170 nM | 290 nM | 330 nM | 250 nM | 270 nM | 260 nM | 4400 nM |  |  |  |  |  |  |  |  |  |  |  | 
[Br-].c1ccc([P+](CCCCCCOCCc2ccc3c(c2)OCO3)(c2ccccc2)c2ccccc2)cc1 | 870 nM | 580 nM | 350 nM | 350 nM | 270 nM | 240 nM | 43000 nM | 600 nM | 3600 nM | 62700 nM | 6 | 27% | 590 nM | Active | Active | Active | Active | Active | Active
c1ccc([P+](CCCCCCCCCCCCOCCc2ccc3c(c2)OCO3)(c2ccccc2)c2ccccc2)cc1 | 59 nM | 210 nM | 220 nM | 170 nM | 180 nM | 190 nM | 4600 nM |  |  |  |  |  |  |  |  |  |  |  | 
O=c1[nH]cc(F)c(=O)[nH]1 [FLUOROURACIL] | 2200 nM | 4400 nM | 16000 nM | 3300 nM | 43000 nM | 49000 nM | 5500 nM |  |  |  |  |  |  |  |  |  |  |  | 
